The source of these data is patent US11613538B2, “Method of inhibiting or reducing a viral infection” (PTC Therapeutics, Inc., priority 2009, dated 2023).

The test system of one data set is cancer in patients. Kind of data set: Treatment of individual cancer patients (clinical parameters and tumor markers). Particulars: monotherapy, in words. It counts as in vivo, human. Here is the method: The arrow symbol represents the timepoint at which docetaxel was reduced to 60 mg/m2.
Another data set relates to HeLa cells. As to conditions: human.
Data set [1] is described as follows: 786-O xenograft study: body weight and clinical observations. Particulars: 786-O study, in words.

Consider `COc1ccc([C@H]2c3[nH]c4ccc(Cl)cc4c3CCN2C(=O)Oc2ccc(Cl)cc2)cc1` (racemic) [Compound #10], for which the “Clinical outcome (FIG. 22)” value in the data set with cancer in patients (patient having cholangiocarcinoma, after four previous therapeutic modalities) is “stabilization for a tumor marker”. Further, in the data set on cancer in patients (patient having chondrosarcoma, after one previous therapeutic modality), the “Clinical outcome (FIG. 21)” value is “stabilization and reduction in a number of clinical parameters and tumor markers”. Further, the “Clinical outcome (FIG. 20)” value in the data set with cancer in patients (patient having melanoma, after two previous therapeutic modalities) was “stabilization and reduction in a number of clinical parameters and tumor markers”. In addition, the “Clinical outcome (FIG. 19)” value with cancer in patients (patient having thyroid cancer, after three previous therapeutic modalities) is “stabilization and reduction in a number of clinical parameters and tumor markers”. Moreover, in the data set on HeLa cells, the CC50 was > 1000 nM. The “Survival of treated mice” value in data set [1] (all mice) is recorded as “survived until sacrificed”. The “Body weight change from initial body weight” value in data set [1] is listed as “did not lose weight”.
